The target in this assay is human PDHK2 (hPDHK2) (Homo sapiens (Human), UniProt Q15119). Put plainly: Inhibitory action of PDHK activity in vitro (kinase reaction, residual PDH activity measured). The class given is biochemical. The protocol: In the case of human PDHK2 (hPDHK2, Genbank Accession No. NM_002611), modified hPDHK2 cDNA wherein FLAG-Tag sequence is added to the N terminal by a polymerase linkage reaction was prepared based on hPDHK2 cDNA clone (pReceiver-M01/PDK2-GeneCopoeia), and cloned into a vector (pET17b-Novagen). The recombinant construct was transformed into Escherichia coli (DH5α-TOYOBO). The recombinant clones were identified, plasmid DNA was isolated and subjected to the DNA sequence analysis. One clone which had the expected nucleic acid sequence was selected for expression work.
During the assay, the hPDHK2 enzyme concentration was set to the minimal concentration at which PDH is inhibited the most.
0.05 U/mL PDH (porcine heart PDH complex, Sigma P7032) and 1.6 μg/mL hPDHK2 were mixed in a buffer (50 mmol/L 3-morpholinopropanesulfonic acid (pH 7.0), 20 mmol/L dipotassium hydrogen phosphate, 60 mmol/L potassium chloride, 2 mmol/L magnesium chloride, 0.4 mmol/L EDTA, and 0.2% Pluronic F-68, 2 mmol/L dithiothreitol), the mixture was incubated at 4° C. overnight to give PDH/hPDHK2 complex. The test compound was diluted with dimethyl sulfoxide (DMSO). PDH/hPDHK2 complex (20 μL), test compound (1.5 μL) and 3.53 μmol/L ATP (diluted with buffer, 8.5 μL) were added to a half area 96 well UV-transparent microplate (Corning 3679), and PDHK reaction was performed at room temperature for 45 min. Instead of the test compound, DMSO (1.5 μL) was added to a control well. DMSO (1.5 μL) was added instead of the test compound to a blank well for the measurement of the maximum rate of PDH reaction, and hPDHK2 was not added. Than, 10 μL of substrates (5 mmol/L sodium pyruvate, 5 mmol/L Coenzyme A, 12 mmol/L NAD, and 5 mmol/L thiamine pyrophosphate, diluted with buffer) was added. The mixture was incubated at room temperature for 90 min, and the residual PDH activity was measured. The absorbance at 340 nm before and after PDH reaction was measured on a microplate reader to detect NADH produced by the PDH reaction. The PDHK inhibitory rate (%) of the test compound was calculated from the formula [{(PDH activity of test compound—PDH activity of control)/PDH activity of blank—PDH activity of control)}×100]. The IC50 value was calculated from the concentrations of the test compound at two points enclosing 50% inhibition of the PDHK activity.

Where [1] appears, read: PDHK inhibitory activity (class symbol).
Setting [2] is: read-out: PDHK inhibitory activity IC50.
[3] abbreviates: PDHK inhibitory activity, class symbol of IC50.

Where two headings read alike, the source gives them in different places.

For orientation: IC50 means the midpoint of a concentration-inhibition curve. With `COc1cc(-c2cnn(C(C)(C)CC(=O)O)c2)c2c(c1)C(O)(C(F)(F)F)c1ccccc1-2` (single isomer, unassigned) [compound 614], the IC50 is, setting by setting: under setting [1], under 100 nM; under setting [2], 37 nM.
The matching figures for `COC(=O)c1cc(Cl)cc2c1-c1ccccc1C2(O)C(F)(F)F` (single isomer, unassigned) [compound 617]: under 100 nM and 84 nM.
The like results for `COc1cc(-c2cnn(CC(C)(C)C(=O)O)c2)c2c(c1)C(O)(C(F)(F)F)c1ccccc1-2` (single isomer, unassigned) [compound 619] were, in that order, under 100 nM and 33 nM.
The like results for `OCCCCOc1cc(-c2cnn(CCO)c2)c2c(c1)C(O)(C(F)(F)F)c1ccccc1-2` (single isomer, unassigned) [compound 624] were, in that order, under 100 nM and 14 nM.
`CCn1cc(-c2cc(CO)c3c(c2)C(O)(C(F)(F)F)c2ccccc2-3)cn1` (single isomer, unassigned) [compound 629, 4-hydroxymethyl-2-(1-ethyl-1H-pyrazol-4-yl)-9-trifluoromethyl-9H-fluoren-9-ol]: the IC50 by setting is: under setting [1], under 100 nM; under setting [2], 45 nM.
The like results for `COC(=O)c1cc(Cl)c2c(c1)C(O)(C(F)(F)F)c1ccccc1-2` (single isomer, unassigned) [compound 647, 4-chloro-9-hydroxy-9-trifluoromethyl-9H-fluorene-2-carboxylic acid methyl ester] were, in that order, 100 to 1000 nM and 169 nM.
The matching figures for `O=C(c1cc(-c2cnn(CCO)c2)c2c(c1)C(O)(C(F)(F)F)c1ccccc1-2)N1CCCC1` (single isomer, unassigned) [compound 657]: under 100 nM and 20 nM.
The matching figures for `CC(C)(C)Cn1cc(-c2cc(C(N)=O)c3c(c2)C(O)(C(F)(F)F)c2ccccc2-3)cn1` (single isomer, unassigned) [compound 659, 2-[1-(2,2-dimethyl-propyl)-1H-pyrazol-4-yl]-9-hydroxy-9-trifluoromethyl-9H-fluorene-4-carboxylic acid amide]: under 100 nM and 16 nM.
On to `CC(C)(C)Cn1cc(-c2cc(CO)c3c(c2)C(O)(C(F)(F)F)c2ccccc2-3)cn1` (single isomer, unassigned) [compound 660, 2-[1-(2,2-dimethyl-propyl)-1H-pyrazol-4-yl]-4-hydroxymethyl-9-trifluoromethyl-9H-fluoren-9-ol], for which the concentration for half-maximal inhibition (IC50) under setting [1] was under 100 nM and the IC50 under setting [2] is 17 nM.
With `Cc1cc(-c2cnn(CC(CO)CO)c2)c2c(c1)C(O)(C(F)(F)F)c1ccccc1-2` (single isomer, unassigned) [compound 663], the IC50 is under 100 nM under setting [1] and 18 nM under setting [2].
As for `CC(C)=Cc1cc(-c2cnn(C(CO)CO)c2)c2c(c1)C(O)(C(F)(F)F)c1ccccc1-2` (single isomer, unassigned) [compound 664], the IC50 is under 100 nM under setting [1] and 15 nM under setting [2].
The matching figures for `CC(C)Cc1cc(-c2cnn(C(CO)CO)c2)c2c(c1)C(O)(C(F)(F)F)c1ccccc1-2` (single isomer, unassigned) [compound 665]: under 100 nM and 23 nM.
`NC(=O)c1cc(-c2cnn(CC3CCCCC3)c2)cc2c1-c1ccccc1C2(O)C(F)(F)F` (single isomer, unassigned) [compound 667, 2-(1-cyclohexylmethyl-1H-pyrazol-4-yl)-9-hydroxy-9-trifluoromethyl-9H-fluorene-4-carboxylic acid amide]: the IC50 was under 100 nM under setting [1] and 15 nM under setting [2].
The like results for `OCc1cc(-c2cnn(CC3CCCCC3)c2)cc2c1-c1ccccc1C2(O)C(F)(F)F` (single isomer, unassigned) [compound 668] were, in that order, under 100 nM and 17 nM.
The like results for `CC(C)(C)CCc1cc(-c2cnn(C(CO)CO)c2)c2c(c1)C(O)(C(F)(F)F)c1ccccc1-2` (single isomer, unassigned) [compound 669] were, in that order, under 100 nM and 17 nM.
The matching figures for `CC(C)(O)Cn1cc(-c2cc(F)cc3c2-c2ccccc2C3(O)C(F)(F)F)cn1` (single isomer, unassigned) [compound 674]: under 100 nM and 30 nM.
For `OCC(CO)c1ncc(-c2cc(F)cc3c2-c2ccccc2C3(O)C(F)(F)F)o1` (single isomer, unassigned) [compound 682], the IC50 under setting [1] was under 100 nM and the IC50 under setting [2] was 79 nM.
For the compound `OCC(CO)c1noc(-c2cc(F)cc3c2-c2ccccc2C3(O)C(F)(F)F)n1` (single isomer, unassigned) [compound 685], the half-maximal inhibitory concentration (IC50) was 100 to 1000 nM under setting [1] and 338 nM under setting [2].
The like results for `CC(C)(O)C(C)(C)n1cc(-c2cc(F)cc3c2-c2ccccc2C3(O)C(F)(F)F)cn1` (single isomer, unassigned) [compound 687] were, in that order, under 100 nM and 51 nM.
The like results for `Cc1cc(-c2cnn(CCCc3nn[nH]n3)c2)c2c(c1)C(O)(C(F)(F)F)c1ccccc1-2` (single isomer, unassigned) [compound 691] were, in that order, under 100 nM and 30 nM.
The like results for `CC(CO)(CO)n1cc(-c2cccc3c2-c2ccccc2C3(O)C(F)(F)F)cn1` (single isomer, unassigned) [compound 702] were, in that order, under 100 nM and 30 nM.
Turning to `OCC(CO)(CO)n1cc(-c2cccc3c2-c2ccccc2C3(O)C(F)(F)F)cn1` (single isomer, unassigned) [compound 706], the IC50 under setting [1] is under 100 nM and the half-inhibitory concentration (IC50) under setting [2] was 31 nM.
On to `OC1(C(F)(F)F)c2ccccc2-c2c(Cl)cc(F)cc21` (single isomer, unassigned; (+)) [Compound No. 526, (+)-4-chloro-2-fluoro-9-trifluoromethyl-9H-fluoren-9-ol], for which the concentration for half-maximal inhibition (IC50) is 397 nM under setting [2] and 100 to 1000 nM (read-out: PDHK inhibitory activity, class symbol of IC50).
For the compound `Cc1cc(-c2cnn(CCC(=O)O)c2)c2c(c1)C(O)(C(F)(F)F)c1ccccc1-2` (single isomer, unassigned; (+)) [compound 538, (+)-3-[4-(9-hydroxy-2-methyl-9-trifluoromethyl-9H-fluoren-4-yl)-pyrazol-1-yl]-propionic acid], the IC50 by setting is: under setting [3], under 100 nM; under setting [2], 26 nM.
The matching figures for `Cc1cc(-c2cnn(CCCC(=O)O)c2)c2c(c1)C(O)(C(F)(F)F)c1ccccc1-2` (single isomer, unassigned; (+)) [compound 539, (+)-4-[4-(9-hydroxy-2-methyl-9-trifluoromethyl-9H-fluoren-4-yl)-pyrazol-1-yl]-butyric acid]: under 100 nM and 27 nM.
The matching figures for `OCC(CO)n1cc(-c2cc(F)cc3c2-c2ccccc2C3(O)C(F)(F)F)cn1` (single isomer, unassigned; (+)) [compound 595, (+)-2-[4-(2-fluoro-9-hydroxy-9-trifluoromethyl-9H-fluoren-4-yl)-pyrazol-1-yl]-propane-1,3-diol]: under 100 nM and 22 nM.
Turning to `CC(CO)(CO)n1cc(-c2cc(F)cc3c2-c2ccccc2C3(O)C(F)(F)F)cn1` (single isomer, unassigned; (+)) [compound 673, (+)-2-[4-(2-fluoro-9-hydroxy-9-trifluoromethyl-9H-fluoren-4-yl)-pyrazol-1-yl]-2-methyl-propane-1,3-diol], the IC50 reads like this: under setting [1], under 100 nM; under setting [2], 22 nM.
The matching figures for `OCC(CO)(CO)n1cc(-c2cc(F)cc3c2-c2ccccc2C3(O)C(F)(F)F)cn1` (single isomer, unassigned; (+)) [compound 703, (+)-2-[4-(2-fluoro-9-hydroxy-9-trifluoromethyl-9H-fluoren-4-yl)-pyrazol-1-yl]-2-hydroxymethyl-propane-1,3-diol]: under 100 nM and 20 nM.
As for `CCn1cc(-c2cc(C(N)=O)c3c(c2)C(O)(C(F)(F)F)c2ccccc2-3)cn1` (single isomer, unassigned; (-)) [compound 630, (−)-2-(1-ethyl-1H-pyrazol-4-yl)-9-hydroxy-9-trifluoromethyl-9H-fluorene-4-carboxylic acid amide], the 50% inhibitory concentration (IC50) runs as follows: under setting [1], under 100 nM; under setting [2], 20 nM.
In the case of `Cc1cc(Cl)c2c(c1)[C@](O)(C(F)(F)F)c1ccccc1-2` (stereo in doubt) [compound 520], the IC50 is 3330 nM (PDHK inhibitory activity IC50 (μmol/L)) and over 1000 nM under setting [3].

The values above are taken from patent US8871934B2, “Fluorene compound and pharmaceutical use thereof” (Japan Tobacco Inc., priority 2008, dated 2014).
